Laboratory results reported in patent US20240425966A1, “GAS-ASSISTED COCRYSTAL DE-SUBLIMATION” (THE REGENTS OF THE UNIVERSITY OF MICHIGAN, priority 2021, published 2024).

Tests used:
[1] = Differential scanning calorimetry (DSC), enthalpy of melting; type: physicochemical; conditions: 40-400° C., 10° C. per minute, initial heating curve
Method: (§1) To determine optimal process temperature, differential scanning calorimetry (DSC) and thermogravimetric analysis (TGA) were performed on the pure components, as well as on the cocrystal, shown in FIG. 2. A TA instruments DSC Q200 was used with a 40-400° C. heating range and 10° C. per minute heating rate. Only initial heating curves were collected and analyzed, without a cooling and secondary heating step. The initial melting peak temperature and enthalpy of melting values for each sample was determined using Universal Analysis software from TA instruments. A TA Instruments TGA Q500 was used with a 25-400° C. heating range and a 10° C. per minute heating rate. Powder was placed into a 5 mm diameter aluminum sample pan centered in a platinum hang pan. Enthalpies of sublimation were determined by plotting the logarithm of mass loss rate (−dm/dt) versus inverse temperature (1000/T).

[2] = Thermogravimetric analysis (TGA), enthalpy of sublimation from Arrhenius plot of mass loss rate; type: physicochemical; conditions: for Sublimation ΔHsub: 25-400° C., 10° C. per minute, slope of log mass loss rate versus 1000/T; for Sublimation Tlow: lower temperature of sublimation range; for Sublimation Thigh: upper temperature of sublimation range
Method: as §1

[3] = Thermal stability (decomposition temperature); type: physicochemical; conditions: heating
Excerpt: Thermal analysis provides a good basis to determine the process window for successful cocrystal de-sublimation. The target temperature for the process is preferably in a region where sublimed API and conformer readily remain in the vapor phase. Too low, and the less volatile compound may de-sublimate within the heated tube, altering the ratio of API to conformer reaching a cooled surface (26). Moreover, decreasing temperature reduces sublimation rate and thus restricts the amount of material that can be processed. The upper temperature limit of the process is largely dictated by the thermal stability of each component. For example, CBZ may begin to decompose appreciably before reaching 180° C., limiting the heating temperature to well below its melting temperature. […] On the other hand, IND is stable up to 248° C., well above its melting temperature (27).

[4] = heating; reference (27); cited from earlier work

Row | Melting ΔHmelt [1] [kJ/mol] | Sublimation ΔHsub [2] [kJ/mol] | Sublimation Tlow [2] [°C] | Sublimation Thigh [2] [°C] | temperature before which decomposition may begin appreciably [3] [°C] | Structure (SMILES) | stable up to (temperature) [4] [°C]
1 | 26.5 | 203.3 | 220 | 280 | < 180 | NC(=O)N1c2ccccc2C=Cc2ccccc21 [CBZ, carbamazepine] | 
2 | 33.0 | 96.5 | 140 | 230 |  | O=C(O)CCC(=O)O [SUC, succinic acid] | 
3 | 36.3 | 107.0 | 200 | 290 |  | O=C1NS(=O)(=O)c2ccccc21 [SAC, saccharine] | 
4 | 33.5 | 114.2 | 200 | 320 |  | COc1ccc2c(c1)c(CC(=O)O)c(C)n2C(=O)c1ccc(Cl)cc1 [IND, indomethacin] | 248
